# Source: patent US20260365682A1, “MODULATORS OF TNF-ALPHA ACTIVITY” (Forward Therapeutics, Inc., priority 2022, published 2026)
# Molecular target: T1, TNF-α (Homo sapiens, UniProt P01375)
# T1 construct: purchased R&D 210-TA-020/CF
# Assay: TNF-α Induced HEK Blue Cellular Assay (secreted alkaline phosphatase expression, QUANTI-Blue)
# Format: cell-based
# Settings: HEK Blue TNFα reporter cells; TNF-α 100 μg/ml; 24 hrs at 37° C.; inhibition of secreted alkaline phosphatase; read-out: IC50 value
# Outline: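 HEK Blue TNFα reporter cells (10,000/well) in DMEM with 10% FBS received compound ([…] to 0.5 nM final) and TNF-α at […] final for 24 h at 37° C. Secreted alkaline phosphatase read with QUANTI-Blue at 620 nm. IC50 came from a 4-parameter logistic fit after normalising to unstimulated and stimulated DMSO controls.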
# T1 sequence (P01375 77-233 limits assumed): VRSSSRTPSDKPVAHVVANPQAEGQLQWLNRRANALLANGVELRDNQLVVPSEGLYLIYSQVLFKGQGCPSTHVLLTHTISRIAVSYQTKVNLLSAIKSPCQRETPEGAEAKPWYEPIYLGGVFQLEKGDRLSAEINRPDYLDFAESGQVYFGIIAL
row,SMILES,IC50 [nM]
1,"[2H]C([2H])([2H])N1C(=O)c2cccc(OC(F)F)c2[C@H]2C[C@@H]1c1nc3ccc(C#CCCCC(=O)O)cc3n12 [Example 98, 6-((7R,14R)-1-(difluoromethoxy)-6-(methyl-d3)-5-oxo-5,6,7,14-tetrahydro-7,14-methanobenzo[f]benzo[4,5]imidazo[1,2-a][1,4]diazocin-11-yl)hex-5-ynoic Acid]",< 100
2,"[2H]C([2H])([2H])N1C(=O)c2cccc(OC(F)F)c2[C@H]2C[C@@H]1c1nc3ccc(CCCCO)cc3n12 [Example 99, (7R,14R)-1-(difluoromethoxy)-11-(4-hydroxybutyl)-6-(methyl-d3)-6,7-dihydro-7,14-methanobenzo[f]benzo[4,5]imidazo[1,2-a][1,4]diazocin-5(14H)-one]",< 100
3,"[2H]C([2H])([2H])N1C(=O)c2cccc(OC(F)F)c2[C@H]2C[C@@H]1c1nc3ccc(C#Cc4cnc(P(C)(C)=O)nc4)cc3n12 [Example 100, (7R,14R)-1-(difluoromethoxy)-11-((2-(dimethylphosphoryl)pyrimidin-5-yl)ethynyl)-6-(methyl-d3)-6,7-dihydro-7,14-methanobenzo[f]benzo[4,5]imidazo[1,2-a][1,4]diazocin-5(14H)-one]",< 100
4,"[2H]C([2H])([2H])N1C(=O)c2cccc(OC(F)F)c2[C@H]2C[C@@H]1c1nc3ccc(C#CCCN4CCOCC4)cc3n12 [Example 101, (7R,14R)-1-(difluoromethoxy)-6-(methyl-d3)-11-(4-morpholinobut-1-yn-1-yl)-6,7-dihydro-7,14-methanobenzo[f]benzo[4,5]imidazo[1,2-a][1,4]diazocin-5(14H)-one]",< 100
5,"[2H]C([2H])([2H])N1C(=O)c2cccc(OC(F)F)c2[C@H]2C[C@@H]1c1nc3ccc(C#CC4CCOC4)cc3n12 (stereo partly drawn) [Example 102, (7R,14R)-1-(difluoromethoxy)-6-(methyl-d3)-11-((tetrahydrofuran-3-yl)ethynyl)-6,7-dihydro-7,14-methanobenzo[f]benzo[4,5]imidazo[1,2-a][1,4]diazocin-5(14H)-one]",< 100
6,"[2H]C([2H])([2H])N1C(=O)c2cccc(OC(F)F)c2[C@H]2C[C@@H]1c1nc3ccc(C#CCCOC(F)F)cc3n12 [Example 103, (7R,14R)-1-(difluoromethoxy)-11-(4-(difluoromethoxy)but-1-yn-1-yl)-6-(methyl-d3)-6,7-dihydro-7,14-methanobenzo[f]benzo[4,5]imidazo[1,2-a][1,4]diazocin-5(14H)-one]",< 100
7,"[2H]C([2H])([2H])N1C(=O)c2cccc(OC(F)F)c2[C@H]2C[C@@H]1c1nc3ccc(C#CCCC(=O)O)cc3n12 [Example 104, 5-((7R,14R)-1-(difluoromethoxy)-6-(methyl-d3)-5-oxo-5,6,7,14-tetrahydro-7,14-methanobenzo[f]benzo[4,5]imidazo[1,2-a][1,4]diazocin-11-yl)pent-4-ynoic Acid]",10000 to 30000
8,"[2H]C([2H])([2H])N1C(=O)c2cccc(OC(F)F)c2[C@H]2C[C@@H]1c1nc3ccc(C#CCC4CC4)cc3n12 [Example 105, (7R,14R)-11-(3-cyclopropylprop-1-yn-1-yl)-1-(difluoromethoxy)-6-(methyl-d3)-6,7-dihydro-7,14-methanobenzo[f]benzo[4,5]imidazo[1,2-a][1,4]diazocin-5(14H)-one]",< 100
9,"[2H]C([2H])([2H])N1C(=O)c2cccc(OC(F)F)c2[C@H]2C[C@@H]1c1nc3ccc(C#Cc4ccc(P(C)(C)=O)cc4)cc3n12 [Example 106, (7R,14R)-1-(difluoromethoxy)-11-((4-(dimethylphosphoryl)phenyl)ethynyl)-6-(methyl-d3)-6,7-dihydro-7,14-methanobenzo[f]benzo[4,5]imidazo[1,2-a][1,4]diazocin-5(14H)-one]",< 100
10,"[2H]C([2H])([2H])N1C(=O)c2cccc(OC(F)F)c2[C@H]2C[C@@H]1c1nc3ccc(C#Cc4ccc(P(C)(C)=O)s4)cc3n12 [Example 107, (7R,14R)-1-(difluoromethoxy)-11-((5-(dimethylphosphoryl)thiophen-2-yl)ethynyl)-6-(methyl-d3)-6,7-dihydro-7,14-methanobenzo[f]benzo[4,5]imidazo[1,2-a][1,4]diazocin-5(14H)-one]",< 100
11,"[2H]C([2H])([2H])N1C(=O)c2cccc(OC(F)F)c2[C@H]2C[C@@H]1c1nc3ccc(C#CCC(F)(F)F)cc3n12 [Example 108, (7R,14R)-1-(difluoromethoxy)-6-(methyl-d3)-11-(4,4,4-trifluorobut-1-yn-1-yl)-6,7-dihydro-7,14-methanobenzo[f]benzo[4,5]imidazo[1,2-a][1,4]diazocin-5(14H)-one]",< 100
12,"[2H]C([2H])([2H])N1C(=O)c2cccc(OC(F)F)c2[C@H]2C[C@@H]1c1nc3c(F)cc(C#CC)cc3n12 [Example 109, (7R,14R)-1-(difluoromethoxy)-9-fluoro-6-(methyl-d3)-11-(prop-1-yn-1-yl)-6,7-dihydro-7,14-methanobenzo[f]benzo[4,5]imidazo[1,2-a][1,4]diazocin-5(14H)-one]",100 to 1000
13,"[2H]C([2H])([2H])N1C(=O)c2cccc(OC(F)F)c2[C@H]2C[C@@H]1c1nc3ccc(C#CC4CC(O)C4)cc3n12 (stereo partly drawn) [Example 110, (7R,14R)-1-(difluoromethoxy)-11-((3-hydroxycyclobutyl)ethynyl)-6-(methyl-d3)-6,7-dihydro-7,14-methanobenzo[f]benzo[4,5]imidazo[1,2-a][1,4]diazocin-5(14H)-one]",< 100

# The next lines start with the values.
row,IC50 [nM],SMILES
1,< 100,"[2H]C([2H])([2H])N1C(=O)c2cccc(OC(F)F)c2[C@H]2C[C@@H]1c1nc3ccc(C#CCCC#N)cc3n12 [Example 87, 5-((7R,14R)-1-(difluoromethoxy)-6-(methyl-d3)-5-oxo-5,6,7,14-tetrahydro-7,14-methanobenzo[f]benzo[4,5]imidazo[1,2-a][1,4]diazocin-11-yl)pent-4-ynenitrile]"
2,< 100,"[2H]C([2H])([2H])N1C(=O)c2cccc(OC(F)F)c2[C@H]2C[C@@H]1c1nc3ccc(C#CC[Si](C)(C)C)cc3n12 [Example 90, (7R,14R)-1-(difluoromethoxy)-6-(methyl-d3)-11-(3-(trimethylsilyl)prop-1-yn-1-yl)-6,7-dihydro-7,14-methanobenzo[f]benzo[4,5]imidazo[1,2-a][1,4]diazocin-5(14H)-one]"
3,< 100,"[2H]C([2H])([2H])N1C(=O)c2cccc(OC(F)F)c2[C@H]2C[C@@H]1c1nc3ccc(C#CCCCC)cc3n12 [Example 91, (7R,14R)-1-(difluoromethoxy)-11-(hex-1-yn-1-yl)-6-(methyl-d3)-6,7-dihydro-7,14-methanobenzo[f]benzo[4,5]imidazo[1,2-a][1,4]diazocin-5(14H)-one]"
4,< 100,"[2H]C([2H])([2H])N1C(=O)c2cccc(OC(F)F)c2[C@H]2C[C@@H]1c1nc3ccc(C#CCCCCO)cc3n12 [Example 92, (7R,14R)-1-(difluoromethoxy)-11-(6-hydroxyhex-1-yn-1-yl)-6-(methyl-d3)-6,7-dihydro-7,14-methanobenzo[f]benzo[4,5]imidazo[1,2-a][1,4]diazocin-5(14H)-one]"
5,< 100,"[2H]C([2H])([2H])N1C(=O)c2cccc(OC(F)F)c2[C@H]2C[C@@H]1c1nc3ccc(C#CCCC(C)(C)O)cc3n12 [Example 93, (7R,14R)-1-(difluoromethoxy)-11-(5-hydroxy-5-methylhex-1-yn-1-yl)-6-(methyl-d3)-6,7-dihydro-7,14-methanobenzo[f]benzo[4,5]imidazo[1,2-a][1,4]diazocin-5(14H)-one]"
6,< 100,"[2H]C([2H])([2H])N1C(=O)c2cccc(OC(F)F)c2[C@H]2C[C@@H]1c1nc3ccc(C#CCCC(C)C)cc3n12 [Example 94, (7R,14R)-1-(difluoromethoxy)-6-(methyl-d3)-11-(5-methylhex-1-yn-1-yl)-6,7-dihydro-7,14-methanobenzo[f]benzo[4,5]imidazo[1,2-a][1,4]diazocin-5(14H)-one]"
7,< 100,"[2H]C([2H])([2H])N1C(=O)c2cccc(OC(F)F)c2[C@H]2C[C@@H]1c1nc3ccc(C#CC(=O)NC(C)C)cc3n12 [Example 95, 3-((7R,14R)-1-(difluoromethoxy)-6-(methyl-d3)-5-oxo-5,6,7,14-tetrahydro-7,14-methanobenzo[f]benzo[4,5]imidazo[1,2-a][1,4]diazocin-11-yl)-N-isopropylpropiolamide]"
8,< 100,"[2H]C([2H])([2H])N1C(=O)c2cccc(OC(F)F)c2[C@H]2C[C@@H]1c1nc3ccc(C#CC4(C)COC4)cc3n12 [Example 96, (7R,14R)-1-(difluoromethoxy)-6-(methyl-d3)-11-((3-methyloxetan-3-yl)ethynyl)-6,7-dihydro-7,14-methanobenzo[f]benzo[4,5]imidazo[1,2-a][1,4]diazocin-5(14H)-one]"
9,< 100,"[2H]C([2H])([2H])N1C(=O)c2cccc(OC(F)F)c2[C@H]2C[C@@H]1c1nc3ccc(C#CC4(O)CCOCC4)cc3n12 [Example 97, (7R,14R)-1-(difluoromethoxy)-11-((4-hydroxytetrahydro-2H-pyran-4-yl)ethynyl)-6-(methyl-d3)-6,7-dihydro-7,14-methanobenzo[f]benzo[4,5]imidazo[1,2-a][1,4]diazocin-5(14H)-one]"

# Same assay, conditions: IC50 value, HEK Blue TNFα reporter cells; TNF-α 100 μg/ml; 24 hrs at 37° C.; inhibition of secreted alkaline phosphatase
row,IC50 [nM],SMILES
1,< 100,"[2H]C([2H])([2H])N1C(=O)c2cccc(OC(F)F)c2[C@H]2C[C@@H]1c1nc3ccc(C#CCCC)cc3n12 [Example 88, (7R,14R)-1-(difluoromethoxy)-6-(methyl-d3)-11-(pent-1-yn-1-yl)-6,7-dihydro-7,14-methanobenzo[f]benzo[4,5]imidazo[1,2-a][1,4]diazocin-5(14H)-one]"
2,100 to 1000,"[2H]C([2H])([2H])N1C(=O)c2cccc(OC(F)F)c2[C@H]2C[C@@H]1c1nc3ccc(C#CC(=O)NCC(F)(F)F)cc3n12 [Example 89, 3-((7R,14R)-1-(difluoromethoxy)-6-(methyl-d3)-5-oxo-5,6,7,14-tetrahydro-7,14-methanobenzo[f]benzo[4,5]imidazo[1,2-a][1,4]diazocin-11-yl)-N-(2,2,2-trifluoroethyl)propiolamide]"
